Source: patent US20030091601A1, “Use of topical arginine to enhance wound healing” (ABAT Inc., priority 2001, published 2003)

System: wound site
Experiment: Hydroxyproline (OHP) content of subcutaneous PVA sponges fed by mini-osmotic pump at a dorsal skin incision, index of wound reparative collagen accumulation
Assay type: in vivo, rats
Conditions: for OHP (collagen synthesis): day 14 post-wounding, mean±SEM
Experimental: (§1) Twenty-eight (28) male adult rats were obtained from a commercial breeder. Rats were housed individually in stainless steel cages at a constant temperature (25°±1° C.) and relative humidity (40-50%). The cages were kept in a room with a twelve-hour light-twelve-hour dark cycle. All animals were allowed at least one week of acclimatization to the laboratory conditions prior to use in the experiments. During this time, they were fed a standard laboratory chow and drank tap water ad libitum.
After the period of acclimatization, the rats were randomly placed into four groups, seven rats per group. Under pentobarbital anesthesia, their backs were shaved and scrubbed with an organic iodine solution and a dorsal skin incision was made. Subcutaneously at the skin incision, a mini-osmotic pump (model 2002, 0.5 μl/hr, Alzet Co.) attached to a polyvinyl alcohol sponge was inserted. Pumps were filled either with PBS or various solutions of arginine in PBS as indicated on Table 1. The rats tolerated the procedure well and recovered uneventfully.
The 1M solution delivers 2 mg/animal/day into the sponge. On the fourteenth day post-wounding, rats were sacrificed with an overdose of pentobarbital. The pelt containing the healing scar was excised. The PVA sponges were removed, carefully cleared of surrounding tissue and frozen at −20° C. for subsequent determination of hydroxyproline content as an index of wound reparative collagen accumulation using the method of Woessner. See J. Woessner, Determination of Hydroxproline in Tissue and Protein Samples Containing Small Proportions of this Amino Acid, Biochem. Biophys., Vol.93, p. 440 (1961).
as §1, with “Twenty (20)” for “Twenty-eight (28)”, “As in Experimental Example 1, rats” for “Rats”, “twelve hour light-twelve hour” for “twelve-hour light-twelve-hour”
After the period of acclimatization, the rats were randomly placed into two groups of ten rats. Under pentobarbital anesthesia, the rats' backs were shaved and scrubbed with an organic iodine solution and a dorsal skin incision was made. As in Experimental Example 1, a mini-osmotic pump (model 2002, 0.5 μl/hr, Alzet Co.) attached to a polyvinyl alcohol sponge was inserted subcutaneously at the incision site. Pumps were filled either with PBS or a solution of 1M arginine in PBS as indicated on Table 3. The rats tolerated the procedure well and recovered uneventfully.
as §1, with “Twenty-one (21)” for “Twenty-eight (28)”, “As in Example Experiments 1 and 2, rats” for “Rats”, “twelve hour light-twelve hour” for “twelve-hour light-twelve-hour”
After the period of acclimatization, the rats were randomly placed into two groups, eight (8) rats were placed into Group 1 and treated with PBS only and thirteen (13) rats were placed into Group 2 and treated with 1M omithine in PBS. Under pentobarbital anesthesia, the rats' backs were shave and scrubbed with an organic iodine solution and a dorsal skin incision was made. Subcutaneously at the skin incision, a mini-osmotic pump (model 2002, 0.5 μl/hr, Alzet Co.) attached to a polyvinyl alcohol sponge was inserted. The mini-osmotic pumps were filled either with PBS or a solution of 1M omithine in PBS as indicated on Table 5 below. The rats tolerated the procedure well and recovered uneventfully. […]

Compound | increase in collagen biosynthesis accumulation compared to the PBS (control) group (Experimental Example 1, arginine 0.01M) [%] | OHP (collagen synthesis) (Experimental Example 1, arginine 0.01 M in PBS by mini-osmotic pump, PBS control 569 ± 27) [μg/100 mg sponge] | increase in collagen biosynthesis accumulation compared to the PBS (control) group (Experimental Example 1, arginine 0.1M) [%] | OHP (collagen synthesis) (Experimental Example 1, arginine 0.1 M in PBS by mini-osmotic pump, PBS control 569 ± 27) [μg/100 mg sponge] | increase in collagen biosynthesis accumulation compared to the PBS (control) group (Experimental Example 1, arginine 1M) | OHP (collagen synthesis) (Experimental Example 1, arginine 1 M in PBS by mini-osmotic pump (2 mg/animal/day), PBS control 569 ± 27) [μg/100 mg sponge] | increase in collagen biosynthesis accumulation compared to the PBS (control) group (Experimental Example 2, arginine 1M) | OHP (collagen synthesis) (Experimental Example 2, arginine 1 M in PBS by mini-osmotic pump (2 mg/animal/day), PBS control 574 ± 43) [μg/100 mg sponge] | increase in collagen biosynthesis accumulation compared to the PBS (control) group (Experimental Example 3, ornithine 1M) | OHP (collagen synthesis) (Experimental Example 3, ornithine 1 M in PBS by mini-osmotic pump, PBS control 588 ± 45) [μg/100 mg sponge]
N=C(N)NCCC[C@H](N)C(=O)O [Arginine, arginine] | ≥ 10 | 633 ± 54 | ≥ 10 | 698 ± 74 | over 60% | 928 ± 55 | over 30% | 797 ± 48 | – | –
NCCC[C@H](N)C(=O)O [Ornithine, ornithine] | – | – | – | – | – | – | – | – | over 45% | 854 ± 71
